US9456606B2, “Pesticidal mixtures” (Syngenta Participations AG, priority 2011, dated 2016)

Test system: Tetranvchus urticae (Two-Spotted Spider Mite)
Assay: Tetranychus urticae bean leaf disc spray test, mobile stages mortality after 8 days, with COLBY expected action
Assay type: in vivo
Conditions: for C8 observed control %: C8 alone; for DMET observed control %: DMET alone; for SPAT observed control %: SPAT alone
Excerpt: The action to be expected E for a given active ingredient combination obeys the so-called COLBY formula and can be calculated as follows (COLBY, S. R. “Calculating synergistic and antagonistic responses of herbicide combination”. Weeds, Vol. 15, pages 20-22; 1967):
According to COLBY, the expected (additive) action of active ingredients A)+B) using p+q ppm of active ingredient is
If the action actually observed (O) is greater than the expected action (E), then the action of the combination is super-additive, i.e. there is a synergistic effect. In mathematical terms the synergism factor SF corresponds to O/E. In the agricultural practice an SF of ≧1.2 indicates significant improvement over the purely complementary addition of activities (expected activity), while an SF of ≦0.9 in the practical application routine signals a loss of activity compared to the expected activity.
Tetranvchus urticae (Two-Spotted Spider Mite)
Bean leaf discs on agar in 24-well microtiter plates are sprayed with test solutions (DMSO). After drying, the leaf discs are infested with mite populations of mixed ages. 8 days later, discs are checked for mobile stages (I removed “mixed population”) mortality.
Columns 4 and 5 show the control observed from the compounds alone. […] When a compound applied alone gave no control at a particular rate, it is assumed that lower rates of that compound alone also give no control. DMET=deltamethrin, SPAT=spirotetramat, C8=compound 8 in Table C.

CCC(=O)NC1CCc2cc(C3=NOC(c4cc(Cl)cc(Cl)c4)(C(F)(F)F)C3)ccc21 (racemic) [C8]
C8 observed control % (0.094 ppm, Table 1): 0%
C8 observed control % (0.187 ppm, Table 1): 0%
C8 observed control % (0.375 ppm, Table 1): 0%
C8 observed control % (0.375 ppm, Table 2): 0%
C8 observed control % (0.75 ppm, Table 1): 25%
C8 observed control % (0.75 ppm, Table 2): 55%
C8 observed control % (1.5 ppm, Table 1): 65%
C8 observed control % (1.5 ppm, Table 2): 80%
C8 observed control % (3.0 ppm, Table 2): 95%
C8 observed control % (6.0 ppm, Table 2): 95%

CC1(C)[C@H](C(=O)O[C@H](C#N)c2cccc(Oc3ccccc3)c2)[C@@H]1C=C(Br)Br [DMET, deltamethrin]
DMET observed control % (0.39 ppm): 0%
DMET observed control % (0.781 ppm): 0%
DMET observed control % (1.562 ppm): 0%
DMET observed control % (3.125 ppm): 0%
DMET observed control % (6.25 ppm): 75%
DMET observed control % (12.5 ppm): 80%
DMET observed control % (25 ppm): 90%
DMET observed control % (50 ppm): 90%

CCOC(=O)OC1=C(c2cc(C)ccc2C)C(=O)N[C@]12CC[C@@H](OC)CC2 [SPAT, spirotetramat]
SPAT observed control % (1.56 ppm): 0%
SPAT observed control % (3.125 ppm): 0%
SPAT observed control % (3.25 ppm): 0%
SPAT observed control % (6.25 ppm): 25%
SPAT observed control % (12.5 ppm): 65%
SPAT observed control % (25 ppm): 80%
SPAT observed control % (50 ppm): 85%
SPAT observed control % (100 ppm): 85%
SPAT observed control % (.25 ppm): 80%
